Measurements: paper PMC12153265 (mBio, 2025)

Tests used:
SARS-CoV-2 [1] = assay: SARS-CoV-2 replication in Caco-2 cells, viral titer in the medium by plaque assay; format: cell-based; conditions: for reduction of viral yield: MOI = 0.1, 72 h; for reduction of viral yield / antiviral activity in SARS-CoV-2 infection compared with compound 1: plaque assay; for IC50 / antiviral activity in SARS-CoV-2 infection compared with compound 1: Caco-2, MOI = 0.1, 72 h; for IC50: viral titer in medium by plaque assay, read-out: IC50, inhibition of SARS-CoV-2 replication
Description: (§1) NHBE (1.5 × 10^5 cells), Calu-3 (5 × 10^5 cells), or Caco-2 cells (2 × 10^5 cells) were seeded in one well of 12-well plates. Cells were washed with FBS-free medium before viral infection. SARS-CoV-2 was diluted in 250 µL (per well) medium and added to the above cells. Viral infection was incubated on a rocker for 45 min at 37°C. Cells were washed with fresh medium, and medium containing 10% FBS was added.
(§2) Vero E6-hACE2 cells were seeded in 6- or 12-well plates. When cell confluence reached 100%, cells were washed with FBS-free medium and infected with medium containing serially diluted SARS-CoV-2. After infection, the medium was removed, and overlay medium containing FBS-free 1× DMEM and 1% low-melting point agarose was added. At 72 h post-infection, cells were fixed with 4% paraformaldehyde (PFA) overnight and stained with 0.2% crystal violet. Plaques were counted on a lightbox.
(§3) Caco-2, NHBE, Calu-3, and Vero E6-hACE2 cells were pre-treated with compound 1, 6, or 10 and infected with SARS-CoV-2 (MOI = 0.1 for Caco-2, NHBE, and Calu-3; MOI = 0.001 for Vero E6-hACE2). Compounds were added daily during viral infection until the end of the experiments (72 h for Caco-2 and Calu-3, 48 h for NHBE, and 24 h for Vero E6-hACE2), with DMSO used as a control. Viral titer in the medium was determined by plaque assay. Cytotoxicity assay was performed for uninfected Caco-2, NHBE, Calu-3, and Vero E6-hACE2 cells with the same treatment schedule as that of viral replication assay. Cytotoxicity was determined with an XTT assay kit (Roche), according to the manufacturer’s instructions. The percentage of inhibition was normalized to DMSO control. IC50, IC90, and CC50 were calculated with GraphPad Prism software.

[2] = Cytotoxicity, XTT assay, uninfected Caco-2 cells; format: cell-based, human; conditions: human, uninfected Caco-2 cells, uninfected Caco-2, XTT assay, read-out: CC50, cell viability
Description: as §3

SARS-CoV-2 [3] = assay: SARS-CoV-2 replication in NHBE cells, viral titer in the medium by plaque assay; format: cell-based; conditions: Severe acute respiratory syndrome coronavirus 2, NHBE, 48 h
Description: as §1, §2
Caco-2, NHBE, Calu-3, and Vero E6-hACE2 cells were pre-treated with compound 1, 6, or 10 and infected with SARS-CoV-2 (MOI = 0.1 for Caco-2, NHBE, and Calu-3; MOI = 0.001 for Vero E6-hACE2). […] Viral titer in the medium was determined by plaque assay. […] Cytotoxicity was determined with an XTT assay kit (Roche), according to the manufacturer’s instructions. […] IC50, IC90, and CC50 were calculated with GraphPad Prism software.

[4] = Cytotoxicity, XTT assay, uninfected NHBE cells; format: cell-based; conditions: human, read-out: CC50, cell viability
Description: as §3

CTPS1 [5] = target: CTPS1 (Homo sapiens, UniProt P17812); assay: CTPS1 enzymatic activity assay (UTP to CTP conversion, mass spectrometry); format: biochemical; conditions: read-out: inhibition of CTP synthesis compared with DMSO
SARS-CoV-2 [6] = assay: SARS-CoV-2 RNA abundance in infected Caco-2 cells, real-time PCR; format: cell-based; conditions: MOI = 0.1, 72 h
SARS-CoV-2 [7] = assay: SARS-CoV-2 replication (plaque assay) and cytotoxicity (XTT) in Calu-3 cells; format: cell-based; conditions: Calu-3, MOI = 0.1, 72 h
Description: as §3

IFN-β promoter = assay: IFN-β induction by Sendai virus, luciferase reporter assay in 293T cells; format: cell-based, human; conditions: SeV infection; for IFN induction compared with compound 1, reporter assay: 293T cells
Description: (§4) HEK293T cells in 24-well plates (~50% cell density) were transfected with a reporter plasmid cocktail containing 50 ng luciferase reporter plasmid (ISRE-luc, IFN-β-luc, or NF-κB), 5 ng TK-renilla luciferase reporter (control vector), and the indicated expression plasmids by calcium phosphate precipitation. Whole cell lysates (WCLs) were prepared at 24–30 h post-transfection and used for dual luciferase assay according to the manufacturer’s instruction (Promega).

NF-κB = NF-κB activation by Sendai virus, luciferase reporter assay in 293T cells; format: cell-based, human; conditions: SeV infection
Description: as §4

IFNB1, ISG56, CCL5, Mx1 = assay: Antiviral gene expression in SARS-CoV-2-infected Caco-2 cells, real-time PCR; format: cell-based, human; conditions: Caco-2, 2 µM and 6 µM, MOI = 0.1, 48 h
IFNB1 = assay: Antiviral gene expression in 293T cells infected with Sendai virus, real-time PCR
CTP synthesis = assay: Intracellular CTP/CDP synthesis, [amide-15N]glutamine tracing and mass spectrometry
CTPS1 [8] = target: T1, CTPS1 (Homo sapiens, UniProt P17812); assay: Covalent labeling of FLAG-CTPS1 in 293T cells, in-gel fluorescence imaging; format: binding; conditions: FLAG-CTPS1 expressing 293T cells, 2 h
T1 construct: expressed in transfected cells; host or cells: 293T cells expressing FLAG-CTPS1
T1 sequence (P17812 1-591): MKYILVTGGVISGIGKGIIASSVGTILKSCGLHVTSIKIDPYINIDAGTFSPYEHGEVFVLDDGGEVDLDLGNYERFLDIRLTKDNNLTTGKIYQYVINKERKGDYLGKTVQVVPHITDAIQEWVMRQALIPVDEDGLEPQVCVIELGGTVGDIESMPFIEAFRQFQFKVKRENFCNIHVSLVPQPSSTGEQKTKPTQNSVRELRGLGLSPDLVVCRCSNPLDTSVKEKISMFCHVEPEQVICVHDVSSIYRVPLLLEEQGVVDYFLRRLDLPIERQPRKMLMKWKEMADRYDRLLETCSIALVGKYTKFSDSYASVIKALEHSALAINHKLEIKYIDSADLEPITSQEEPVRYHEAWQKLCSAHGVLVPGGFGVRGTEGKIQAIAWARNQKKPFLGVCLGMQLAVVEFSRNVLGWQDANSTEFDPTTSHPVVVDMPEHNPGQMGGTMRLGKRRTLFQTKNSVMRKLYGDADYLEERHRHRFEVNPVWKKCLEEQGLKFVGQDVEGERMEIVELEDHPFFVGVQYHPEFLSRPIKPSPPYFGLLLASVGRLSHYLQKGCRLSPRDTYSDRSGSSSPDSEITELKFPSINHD

Caco-2 cells = assay: Cytotoxicity, XTT assay, uninfected Caco-2 cells; format: cell-based, human; conditions: uninfected Caco-2, XTT assay, 72 h; read-out: CC50, cell viability
Description: as §3

SARS-CoV-2 [9] = assay: SARS-CoV-2 infection of K18-hACE2 transgenic mice; format: in vivo, mouse; conditions: 50 mg/kg daily intraperitoneal, 3 dpi
Description: K18-hACE2 transgenic mice were intraperitoneally administered with compound 10 at a dose of 50 mg/kg and vehicle 1 day before infection with 1 × 10^4 PFU of SARS-CoV-2. Body weight and compound administration were monitored daily. Mice were humanely euthanized at 3 dpi, and the lung tissues were harvested for viral titration, real-time PCR, and pathological analysis.
K18-ACE2 transgenic mice were euthanized on day 3 after SARS-CoV-2 infection. Fresh lung pieces were fixed with 10% formalin for 24 h. The post-caval lobes of the […] were sent to the histology lab in USC of the School of Pharmacy Core Facilities for processing and hematoxylin and eosin (H&E) staining. In brief, tissues were dehydrated and embedded in paraffin. Paraffin-embedded tissue blocks were sectioned with 5 µm thickness. Sections were processed by H&E staining and imaged by ZEISS Axio Scope.A1 microscope (Zeiss) and analyzed by ZEISS ZEN Blue software.
Immunofluorescence staining was performed on the middle lobes of the […] fixed with 10% formalin. Tissues were embedded in optimal cutting temperature (OCT) compound and frozen immediately at −80°C. Subsequently, the frozen tissues were cut into 8 µm sections using a cryostat-microtome. Sections were blocked with 10% normal goat serum diluted in PBST for 1 h and incubated with primary antibodies diluted in 10% normal goat serum overnight at 4°C. After washing with PBST, sections were incubated with species-matched secondary antibodies for 30 min at room temperature. Then tissue sections were washed with PBST, mounted with VectaMount Mounting Medium (Vector Laboratories), and analyzed by a confocal microscope (Nikon).

SARS-CoV-2 [10] = assay: SARS-CoV-2 infection of AAV-hACE2-transduced C57BL/6 J mice; conditions: 35 mg/kg daily intraperitoneal, 4 dpi

SMILES: COc1cccc(NC(=O)c2cccc(NC(=O)CCl)c2)c1 [Compound 1]
- reduction of viral yield (SARS-CoV-2 [1]; Caco-2, 2 µM): ~ 10 fold
- reduction of viral yield (SARS-CoV-2 [1]; Caco-2, 6 µM): ~50 fold
- IC90 (SARS-CoV-2 [1]; Severe acute respiratory syndrome coronavirus 2, Caco-2, 72 h, read-out: IC90, inhibition of SARS-CoV-2 replication): 1560 nM
- IC50 (SARS-CoV-2 [1]; Severe acute respiratory syndrome coronavirus 2): 170 nM
- CC50 at 72 h [2]: 2420 nM
- IC50 (SARS-CoV-2 [3]; read-out: IC50, inhibition of SARS-CoV-2 replication): 970 nM
- IC90 (SARS-CoV-2 [3]; read-out: IC90, inhibition of SARS-CoV-2 replication): 8700 nM
- CC50 at 48 h [4]: 3750 nM
- inhibition at 10 µM (CTPS1 [5]): 55 to 83%
- reduction of viral RNA abundance (Nsp1, N, E) (SARS-CoV-2 [6]; Caco-2, 2 µM): > 50%
- reduction of viral RNA abundance (Nsp1, N, E) (SARS-CoV-2 [6]; Caco-2, 6 µM): ~ 75%
- CC50 value relative to IC50 value (SARS-CoV-2 [7]): IC50 values as high as their CC50 values
- IFN induction, luciferase reporter (IFN-β promoter; CTPS1-depleted 293T cells): failed to do so
- IFN induction, luciferase reporter (IFN-β promoter; control 293T cells): elevated IFN induction
- NF-κB activation, luciferase reporter (NF-κB): no effect
- expression of antiviral genes (IFNB1, ISG56, CCL5, Mx1) (IFNB1, ISG56, CCL5, Mx1): elevated
- IFNB1 expression (IFNB1; 293T cells infected with Sendai virus): increased IFNB1 expression in a dose-dependent manner
- expression of IFNB1 and ISG56 inhibited by Nsp8 and ORF8 (IFNB1; 293T cells transfected with Nsp8 or ORF8, SeV infection, 6 h): significantly restored
- intracellular concentration of [amide-15N]CTP and [amide-15N]CDP (CTP synthesis; Caco-2 cells infected with SARS-CoV-2): potently diminished
- [amide-15N]CTP and [amide-15N]CDP (CTP synthesis; Caco-2 cells stably expressing ORF8): diminished

SMILES: C#CCOc1cccc(NC(=O)c2cccc(NC(=O)CCl)c2)c1 [Compound 2]
- covalent labeling of CTPS1 (CTPS1 [8]): covalently labeled CTPS1 in a dose-dependent manner

SMILES: COc1ccccc1NC(=O)c1cccc(NC(=O)CCl)c1 [Compound 6]
- antiviral activity in SARS-CoV-2 infection compared with compound 1 (SARS-CoV-2 [1]): more robust antiviral activity
- IC50 (SARS-CoV-2 [1]): 140 nM
- CC50 (Caco-2 cells): 2820 nM
- CC50 value relative to IC50 value (SARS-CoV-2 [7]): IC50 values as high as their CC50 values
- IFN induction compared with compound 1, reporter assay (IFN-β promoter): better effect on IFN induction than compound 1

SMILES: CCCCCNC(=O)c1cccc(NC(=O)CCl)c1 [Compound 10]
- antiviral activity in SARS-CoV-2 infection compared with compound 1 (SARS-CoV-2 [1]): more robust antiviral activity
- IC50 (SARS-CoV-2 [1]): 110 nM
- CC50 (Caco-2 cells): 6170 nM
- CC50 value relative to IC50 value (SARS-CoV-2 [7]): 10 fold
- lung pathology, H&E staining (inflammatory infiltration) (SARS-CoV-2 [9]): weak and isolated infiltration of immune cells
- viral N protein in the lung, immunofluorescence staining (SARS-CoV-2 [9]): lower expression of viral protein
- immune gene expression in the lung (SARS-CoV-2 [9]; vs vehicle): elevated
- viral RNA abundance in the lung (SARS-CoV-2 [9]; vs vehicle): reduced
- viral titer in the lung (SARS-CoV-2 [9]; vs vehicle, plaque assay): reduced
- IFN induction compared with compound 1, reporter assay (IFN-β promoter): better effect on IFN induction than compound 1
- viral titer in the lung (SARS-CoV-2 [10]; plaque assay): decreased
- expression of cellular antiviral genes (Ifnb1, Isg15, Isg56, Mx1) in the lung (SARS-CoV-2 [10]; real-time PCR): elevated
